# From patent US20250288683A1, “TETRAHYDROISOQUINOLINE HETEROBIFUNCTIONAL BCL-XL DEGRADERS” (Treeline Biosciences, Inc., priority 2022, published 2025)
# Molecular target: T1, Human BCL-XL protein (N-terminal HiBiT tagged BCL-XL in HT1080 cells) (Homo sapiens, UniProt Q07817)
# T1 construct: expressed in transfected cells; host or cells: HT-1080 (ATCC CCL-121), stably transduced with lentivirus pLV-UBC-N-HiBiT-BCL-XL-PGK-puro and selected with puromycin
# Assay: HiBiT based degradation assay
# Type: cell-based
# Conditions: HT1080 cells expressing N-terminal HiBiT tagged BCL-XL, 24 h, normalized with DMSO control
# T1 sequence (Q07817 whole entry): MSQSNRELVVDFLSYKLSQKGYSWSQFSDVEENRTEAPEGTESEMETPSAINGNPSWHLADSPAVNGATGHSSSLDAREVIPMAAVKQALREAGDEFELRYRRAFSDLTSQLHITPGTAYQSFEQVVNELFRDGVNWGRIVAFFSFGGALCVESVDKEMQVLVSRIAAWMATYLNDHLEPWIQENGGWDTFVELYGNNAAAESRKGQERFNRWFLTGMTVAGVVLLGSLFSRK
row,Ymin (24 h),Structure (SMILES)
1,A (Ymin < 50%),"Cc1ncsc1-c1ccc([C@@H](NC(=O)[C@@H]2C[C@@H](O)CN2C(=O)[C@@H](NC(=O)C[C@H]2CC[C@H](Oc3cccc(-c4ccc(N5CCc6cccc(C(=O)Nc7nc8ccccc8s7)c6C5)nc4C(=O)O)c3C)CC2)C(C)(C)C)C(F)(F)F)cc1 [Compound 125a, 6-(8-(benzo[d]thiazol-2-ylcarbamoyl)-3,4-dihydroisoquinolin-2 (1H)-yl)-3-(3-(((1S,4r)-4-(2-(((S)-1-((2S,4R)-4-hydroxy-2-(((R)-2,2,2-trifluoro-1-(4-(4-methylthiazol-5-yl)phenyl)ethyl)carbamoyl)pyrrolidin-1-yl)-3,3-dimethyl-1-oxobutan-2-yl)amino)-2-oxoethyl)cyclohexyl)oxy)-2-methylphenyl)picolinic acid]"
2,A (Ymin < 50%),"Cc1ncsc1-c1ccc([C@H](C)NC(=O)[C@@H]2C[C@@H](O)CN2C(=O)[C@@H](NC(=O)CN2CCC(COc3cccc(-c4ccc(N5CCc6cccc(C(=O)Nc7nc8ccccc8s7)c6C5)nc4C(=O)O)c3C)CC2)C(C)(C)C)cc1 [Compound 127a, 6-[8-(1,3-benzothiazol-2-ylcarbamoyl)-3,4-dihydro-1H-isoquinolin-2-yl]-3-[3-[[1-[2-[[(1S)-1-[(2S,4R)-4-hydroxy-2-[[(1S)-1-[4-(4-methylthiazol-5-yl)phenyl]ethyl]carbamoyl]pyrrolidine-1-carbonyl]-2,2-dimethyl-propyl]amino]-2-oxo-ethyl]-4-piperidyl]methoxy]-2-methyl-phenyl]pyridine-2-carboxylic acid]"
3,B (50% ≤ Ymin < 70%),"Cc1ncsc1-c1ccc([C@H](C)NC(=O)[C@@H]2C[C@@H](O)CN2C(=O)[C@@H](n2cc(CCc3ccc(Oc4cccc(-c5ccc(N6CCc7cccc(C(=O)Nc8nc9ccccc9s8)c7C6)nc5C(=O)O)c4C)cc3)nn2)C(C)(C)C)cc1 [Compound 132a, 6-(8-(benzo[d]thiazol-2-ylcarbamoyl)-3,4-dihydroisoquinolin-2 (1H)-yl)-3-(3-(4-(2-(1-((S)-1-((2S,4R)-4-hydroxy-2-(((S)-1-(4-(4-methylthiazol-5-yl)phenyl)ethyl)carbamoyl)pyrrolidin-1-yl)-3,3-dimethyl-1-oxobutan-2-yl)-1H-1,2,3-triazol-4-yl)ethyl)phenoxy)-2-methylphenyl)picolinic acid]"
4,B (50% ≤ Ymin < 70%),"Cc1ncsc1-c1ccc([C@H](C)NC(=O)[C@@H]2C[C@@H](O)CN2C(=O)[C@@H](NC(=O)C(C)(C)CCc2ccc(Oc3cccc(-c4ccc(N5CCc6cccc(C(=O)Nc7nc8ccccc8s7)c6C5)nc4C(=O)O)c3C)cc2)C(C)(C)C)cc1 [Compound 133a, 6-[8-(1,3-benzothiazol-2-ylcarbamoyl)-3,4-dihydro-1H-isoquinolin-2-yl]-3-[3-[4-[4-[[(1S)-1-[(2S,4R)-4-hydroxy-2-[[(1S)-1-[4-(4-methylthiazol-5-yl)phenyl]ethyl]carbamoyl]pyrrolidine-1-carbonyl]-2,2-dimethyl-propyl]amino]-3,3-dimethyl-4-oxo-butyl]phenoxy]-2-methyl-phenyl]pyridine-2-carboxylic acid]"

row,Structure (SMILES),Ymin (24 h)
1,"Cc1ncsc1-c1ccc([C@H](C)NC(=O)[C@@H]2C[C@@H](O)CN2C(=O)[C@@H](n2cc(CCCCCOc3cccc(-c4ccc(N5CCc6cccc(C(=O)Nc7nc8ccccc8s7)c6C5)nc4C(=O)O)c3C)nn2)C(C)(C)C)cc1 [Compound 126a, 6-[8-(1,3-benzothiazol-2-ylcarbamoyl)-3,4-dihydro-1H-isoquinolin-2-yl]-3-[3-[5-[1-[(1S)-1-[(2S,4R)-4-hydroxy-2-[[(1S)-1-[4-(4-methylthiazol-5-yl)phenyl]ethyl]carbamoyl]pyrrolidine-1-carbonyl]-2,2-dimethyl-propyl]triazol-4-yl]pentoxy]-2-methyl-phenyl]pyridine-2-carboxylic acid]",A (Ymin < 50%)
